In this experiment the test system is beet armyworm (Spodoptera exigua). As to the kind of experiment: Test D: control of beet armyworm on corn plant, foliar spray. To be noted: sprayed at 50 ppm, 1-day-old larvae, 6 days, visual rating. It is filed as in vivo. The protocol: Test compounds were formulated using a solution containing 10% acetone, 90% water and 300 ppm X-77® Spreader Lo-Foam Formula non-ionic surfactant containing alkylarylpolyoxyethylene, free fatty acids, glycols and isopropanol (Loveland Industries, Inc., Greely, Colo. USA), unless otherwise indicated. The formulated compounds were applied in 1 mL of liquid through a SUJ2 atomizer nozzle with ⅛ JJ custom body (Spraying Systems Co. Wheaton, Ill., USA) positioned 1.27 cm (0.5 inches) above the top of each test unit. All experimental compounds in these tests were sprayed at 250 ppm (or lower) and replicated three times. After spraying of the formulated test compound, each test unit was allowed to dry for 1 hour and then a black, screened cap was placed on top. The test units were held for 6 days in a growth chamber at 25° C. and 70% relative humidity. Plant feeding damage was then visually assessed based on foliage consumed.
For evaluating control of beet armyworm (Spodoptera exigua) the test unit consisted of a small open container with a 4-5-day-old corn plant inside. This was pre-infested (using a core sampler) with 10-15 1-day-old larvae on a piece of insect diet.
Test compounds were formulated and sprayed at 250 ppm (or lower) as described for Test A. The applications were replicated three times. […]

The record followed here is patent publication US7754738B2, “Pyrazole and pyrrole carboxamide insecticides” (E.I. du Pont de Nemours and Company, priority 2002, dated 2010).

Regarding `O=C(Nc1c(F)cc(F)cc1Br)c1cc(Br)nn1-c1ncccc1Cl` [Compound 7, N-(2-bromo-4,6-difluorophenyl)-1-(3-chloro-2-pyridinyl)-3-bromo-1H-pyrazole-5-carboxamide], the “feeding damage (plant protection)” value is not above 20%.
